The experiment has as its target T1, STING (Homo sapiens, UniProt Q86WV6, G230A/H232R/R293Q/R71H).
T1 construct: host or cells: THP1-Dual KO-IFNAR2 cells
As to the kind of experiment: STING reporter assay: luciferase reporter activity in THP1-Dual KO-IFNAR2 cells stimulated with 2′3′cGAMP. Conditions: 15 μM 2′3′cGAMP, 24h, read-out: hSTING EC50. It is filed as cell-based. The protocol:
STING pathway activation by the compounds described herein was measured using THP 1-Dual™ cells (KO-IFNAR2).
THP1-Dual™ KO-IFNAR2 Cells (obtained from invivogen) were maintained in RPMI, 10% FCS, 5 ml P/S, 2 mM L-glut, 10 mM Hepes, and 1 mM sodium pyruvate. Compounds were spotted in empty 384 well tissue culture plates (Greiner 781182) by Echo for a final concentration of 0.0017-100 μM. Cells were plated into the TC plates at 40 μL per well, 2×10E6 cells/mL. For activation with STING ligand, 2′3′cGAMP (MW 718.38, obtained from Invivogen), was prepared in Optimem media.
The following solutions were prepared for each 1×384 plate: • Solution A: 2 mL Optimem with one of the following stimuli: • 60 μL of 10 mM 2′3′cGAMP→150 μM stock • Solution B: 2 mL Optimem with 60 μL Lipofectamine 2000→Incubate 5 min at RT
2 mL of solution A and 2 ml Solution B was mixed and incubated for 20 min at room temperature (RT). 20 μL of transfection solution (A+B) was added on top of the plated cells, with a final 2′3′cGAMP concentration of 15 μM. The plates were then centrifuged immediately at 340 g for 1 minute, after which they were incubated at 37° C., 5% CO2, >98% humidity for 24h. Luciferase reporter activity was then measured. EC50 values were calculated by using standard methods known in the art.
Luciferase reporter assay: 10 μL of supernatant from the assay was transferred to white 384-plate with flat bottom and squared wells. One pouch of QUANTI-Luc™ Plus was dissolved in 25 mL of water. 100 μL of QLC Stabilizer per 25 mL of QUANTI-Luc™ Plus solution was added. 50 μL of QUANTI-Luc™ Plus/QLC solution per well was then added. Luminescence was measured on a Platereader (e.g., Spectramax I3X (Molecular Devices GF3637001)).
Luciferase reporter activity was then measured. EC50 values were calculated by using standard methods known in the art.
For orientation: A reporter such as luciferase makes a cellular process visible.
T1 sequence (Q86WV6 whole entry R71H/G230A/H232R/R293Q): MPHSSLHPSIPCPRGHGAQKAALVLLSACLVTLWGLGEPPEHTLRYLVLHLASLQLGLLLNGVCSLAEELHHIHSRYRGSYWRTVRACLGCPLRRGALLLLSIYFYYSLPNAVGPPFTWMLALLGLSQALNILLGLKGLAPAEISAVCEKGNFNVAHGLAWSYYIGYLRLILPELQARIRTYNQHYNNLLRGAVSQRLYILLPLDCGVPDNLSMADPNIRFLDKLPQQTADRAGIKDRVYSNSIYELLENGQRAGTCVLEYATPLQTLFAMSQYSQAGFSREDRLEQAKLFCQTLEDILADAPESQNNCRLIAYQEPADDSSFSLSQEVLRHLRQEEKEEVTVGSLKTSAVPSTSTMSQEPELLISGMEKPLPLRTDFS
In general, EC50 refers to the concentration giving half of the maximal effect. With `CC(=O)NC(C)(C)C(=O)Nc1c[nH]c2ccc(-c3cnn(-c4ccc(C(F)(F)F)cc4)c3)cc12` [Compound 181, 2-acetamido-2-methyl-N-(5-(1-(4-(trifluoromethyl)phenyl)-1H-pyrazol-4-yl)-1H-indol-3-yl)propanamide], the concentration giving a half-maximal response (EC50) was in the range of 5 to 100 µM.

Turning to `CCC(=O)Nc1c[nH]c2ccc(-c3cnn(-c4ccc(CC)nc4)c3)cc12` [Compound 120, N-(5-(1-(6-ethylpyridin-3-yl)-1H-pyrazol-4-yl)-1H-indol-3-yl)propionamide], the concentration giving a half-maximal response (EC50) lay in the range of 1 to 5 µM.

For `CCC(=O)Nc1c[nH]c2ccc(-c3ccc(N4CCCC4)nc3)cc12` [Compound 147, N-(5-(6-(pyrrolidin-1-yl)pyridin-3-yl)-1H-indol-3-yl)propionamide], the EC50 fell in the range of 5 to 100 µM.

For the compound `CCC(=O)Nc1c[nH]c2ccc(-c3ccn(-c4ccc(C(F)(F)F)cc4)n3)cc12` [Compound 117, N-(5-(1-(4-(trifluoromethyl)phenyl)-1H-pyrazol-3-yl)-1H-indol-3-yl)propionamide], the concentration for a half-maximal effect (EC50) was in the range of 1 to 5 µM.

As to `Cn1cc(C(=O)Nc2c[nH]c3ccc(-c4cnn(-c5ccc(C(F)(F)F)cc5)c4)cc23)cn1` [Compound 278, 1-methyl-N-(5-(1-(4-(trifluoromethyl)phenyl)-1H-pyrazol-4-yl)-1H-indol-3-yl)-1H-pyrazole-4-carboxamide], the EC50 lay within 0.2 to 1 µM.

With `O=C(Nc1c[nH]c2ccc(-c3cnn(Cc4ccc(C(F)(F)F)cc4)c3)cc12)C1CCC1` [Compound 258, N-(5-(1-(4-(trifluoromethyl)benzyl)-1H-pyrazol-4-yl)-1H-indol-3-yl)cyclobutanecarboxamide], the half-maximal effective concentration (EC50) was 0.04 to 0.2 µM.

Regarding `O=C(Nc1c[nH]c2ccc(-c3cnn(-c4ccc(C5CC(F)(F)C5)cc4)c3)cc12)C1CCC1` [Compound 259, N-(5-(1-(4-(3,3-difluorocyclobutyl)phenyl)-1H-pyrazol-4-yl)-1H-indol-3-yl)cyclobutanecarboxamide], the concentration giving a half-maximal response (EC50) was in the range of 0.2 to 1 µM.

For `CC(=O)Nc1c[nH]c2ccc(-c3cnn(C(C)c4ccc(C(F)(F)F)cc4)c3)cc12` (stereo not shown) [Compound 178, N-(5-(1-(1-(4-(trifluoromethyl)phenyl)ethyl)-1H-pyrazol-4-yl)-1H-indol-3-yl)acetamide], the concentration giving a half-maximal response (EC50) was in the range of 0.2 to 1 µM.

As to `CN1C(=O)CCC1C(=O)Nc1c[nH]c2ccc(-c3cnn(-c4ccc(C(F)(F)F)cc4)c3)cc12` (stereo not shown) [Compound 252, 1-methyl-5-oxo-N-(5-(1-(4-(trifluoromethyl)phenyl)-1H-pyrazol-4-yl)-1H-indol-3-yl)pyrrolidine-2-carboxamide], the concentration for a half-maximal effect (EC50) lay within 1 to 5 µM.

Take `CCc1ccc(-n2cc(-c3ccc4[nH]cc(NC(=O)C5CCCCC5)c4c3)cn2)cc1` [Compound 123, N-(5-(1-(4-ethylphenyl)-1H-pyrazol-4-yl)-1H-indol-3-yl)cyclohexanecarboxamide]: the concentration giving a half-maximal response (EC50) is 0.04 to 0.2 µM.

For `O=C(Nc1c[nH]c2ccc(-c3cnn(-c4ccc(C(F)(F)F)cc4)c3)cc12)c1cscn1` [Compound 275, N-(5-(1-(4-(trifluoromethyl)phenyl)-1H-pyrazol-4-yl)-1H-indol-3-yl)thiazole-4-carboxamide], the EC50 lay within 1 to 5 µM.

With `CC(=O)Nc1c[nH]c2ccc(-c3cnn(-c4ccc(C5CC(F)(F)C5)c(Cl)c4)c3)cc12` [Compound 169, N-(5-(1-(3-chloro-4-(3,3-difluorocyclobutyl)phenyl)-1H-pyrazol-4-yl)-1H-indol-3-yl)acetamide], the EC50 fell in the range of 0.2 to 1 µM.

For the compound `CCc1ccc(-n2cc(-c3ccc4[nH]cc(NC(=O)CC(C)(C)O)c4c3)cn2)cc1` [Compound 113, N-(5-(1-(4-ethylphenyl)-1H-pyrazol-4-yl)-1H-indol-3-yl)-3-hydroxy-3-methylbutanamide], the EC50 is 0.04 to 0.2 µM.

On to `C[C@@H](c1cccc(C(F)(F)F)c1)n1cc(-c2ccc3[nH]cc(NC(=O)C4CCC4)c3c2)cn1` [Compound 243, (S)-N-(5-(1-(1-(3-(trifluoromethyl)phenyl)ethyl)-1H-pyrazol-4-yl)-1H-indol-3-yl)cyclobutanecarboxamide], for which the EC50 was 0.2 to 1 µM.

For `O=C(Nc1c[nH]c2cnc(-c3cnn(-c4ccc(C(F)(F)F)cc4)c3)cc12)C1CCC1` [Compound 255, N-(5-(1-(4-(trifluoromethyl)phenyl)-1H-pyrazol-4-yl)-1H-pyrrolo[2,3-c]pyridin-3-yl)cyclobutanecarboxamide], the concentration giving a half-maximal response (EC50) lay in the range of 5 to 100 µM.

Regarding `CC(=O)N1CCCC1C(=O)Nc1c[nH]c2ccc(-c3cnn(-c4ccc(C(F)(F)F)cc4)c3)cc12` (stereo not shown) [Compound 226, 1-acetyl-N-(5-(1-(4-(trifluoromethyl)phenyl)-1H-pyrazol-4-yl)-1H-indol-3-yl)pyrrolidine-2-carboxamide], the 50% effective concentration (EC50) is 1 to 5 µM.

On to `O=C1CCC(C(=O)Nc2c[nH]c3ccc(-c4cnn(-c5ccc(C(F)(F)F)cc5)c4)cc23)=NN1` [Compound 234, 6-oxo-N-(5-(1-(4-(trifluoromethyl)phenyl)-1H-pyrazol-4-yl)-1H-indol-3-yl)-1,4,5,6-tetrahydropyridazine-3-carboxamide], for which the EC50 lay within 1 to 5 µM.

For `O=C(Nc1c[nH]c2ccc(-c3cnn(Cc4ccc(C(F)(F)F)cn4)c3)cc12)C1CCC1` [Compound 253, N-(5-(1-((5-(trifluoromethyl)pyridin-2-yl)methyl)-1H-pyrazol-4-yl)-1H-indol-3-yl)cyclobutanecarboxamide], the EC50 was in the range of 0.2 to 1 µM.

With `CC(=O)Nc1c[nH]c2ccc(-c3cnn(Cc4cccc(C(F)(F)F)c4)c3)cc12` [Compound 180, N-(5-(1-(3-(trifluoromethyl)benzyl)-1H-pyrazol-4-yl)-1H-indol-3-yl)acetamide], the half-maximal effective concentration (EC50) lay in the range of 0.2 to 1 µM.

In the case of `CCc1ccc(-n2cc(-c3ccc4[nH]cc(NC(=O)/C=C/COC)c4c3)cn2)cc1` [Compound 130, (E)-N-(5-(1-(4-ethylphenyl)-1H-pyrazol-4-yl)-1H-indol-3-yl)-4-methoxybut-2-enamide], the half-maximal effective concentration (EC50) lay within 0.2 to 1 µM.

As to `CN1CCC1C(=O)Nc1c[nH]c2ccc(-c3cnn(-c4ccc(C(F)(F)F)cc4)c3)cc12` (stereo not shown) [Compound 254, 1-methyl-N-(5-(1-(4-(trifluoromethyl)phenyl)-1H-pyrazol-4-yl)-1H-indol-3-yl)azetidine-2-carboxamide], the EC50 lay within 5 to 100 µM.

`CN1C(=O)CC[C@H]1C(=O)Nc1c[nH]c2ccc(-c3cnn(-c4ccc(C(F)(F)F)cc4)c3)cc12` [Compound 209, (S)-1-methyl-5-oxo-N-(5-(1-(4-(trifluoromethyl)phenyl)-1H-pyrazol-4-yl)-1H-indol-3-yl)pyrrolidine-2-carboxamide]: the half-maximal effective concentration (EC50) is 5 to 100 µM.

Turning to `CCc1ccc(-n2cc(-c3ccc4[nH]cc(NC(=O)C5COC5)c4c3)cn2)cc1` [Compound 112, N-(5-(1-(4-ethylphenyl)-1H-pyrazol-4-yl)-1H-indol-3-yl)oxetane-3-carboxamide], the EC50 was 0.2 to 1 µM.

Regarding `O=C(Nc1c[nH]c2ccc(-c3cnn(-c4ccc(C(F)(F)F)cc4)c3)cc12)C1CC(F)(F)C1` [Compound 236, 3,3-difluoro-N-(5-(1-(4-(trifluoromethyl)phenyl)-1H-pyrazol-4-yl)-1H-indol-3-yl)cyclobutane-1-carboxamide], the EC50 is 0.2 to 1 µM.

In the case of `Cn1cc(C(=O)Nc2c[nH]c3ccc(-c4cnn(-c5ccc(C(F)(F)F)cc5)c4)cc23)nn1` [Compound 279, 1-methyl-N-(5-(1-(4-(trifluoromethyl)phenyl)-1H-pyrazol-4-yl)-1H-indol-3-yl)-1H-1,2,3-triazole-4-carboxamide], the concentration giving a half-maximal response (EC50) is 0.2 to 1 µM.

For the origin of these results see patent US20230365553A1, “COMPOUNDS AND COMPOSITIONS FOR TREATING CONDITIONS ASSOCIATED WITH STING ACTIVITY” (IFM Due, Inc., priority 2020, published 2023).
